Measurements from the supplement of paper PMC4862054.
Values joined by “and” are separate entries in the source; they are usually repeats but may differ in a detail not shown here. Equal values may be shown once.

Experiments:
Settings in all cases: incubation time: 72 h
[1] = system: DU-4475; assay: normalised response (% of control), CellTox Green; higher = less cell death (100 = DMSO, 0 = benzethonium chloride kill control)
Procedure, shortened: (§1)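 Two readouts were taken after 72 h: CellTox Green fluorescence (485/520 nm) first, then CellTiter-Glo luminescence after 10 min at room temperature. Breast cancer cell lines had been seeded as 20 µl suspension into 384-well plates holding compound at 5 concentrations in 10-fold steps across a compound-specific 10,000-fold range. Each value is a normalised signal at a single concentration, with plates scaled to 0.1 % DMSO (100) and a positive kill control (0).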

[2] = system: HCC1937; assay: as above
Procedure, shortened: as §1

[3] = system: MFM-223; assay: as above
Procedure, shortened: as §1

[4] = system: CAL-148; assay: as above
Procedure, shortened: as §1

[5] = system: Hs578T; assay: as above
Procedure, shortened: as §1

[6] = system: CAL-51; assay: as above
Procedure, shortened: as §1

[7] = system: CAL-85-1; assay: as above
Procedure, shortened: as §1

[8] = system: HDQ-P1; assay: as above
Procedure, shortened: as §1

[9] = system: HCC1143; assay: as above
Procedure, shortened: as §1

[10] = system: CAL-120; assay: as above
Procedure, shortened: as §1

[11] = system: MDA-MB-453; assay: as above
Procedure, shortened: as §1

[12] = system: DU-4475; assay: normalised viability (% of control), CellTiter-Blue; higher = more viable cells (about 100 = DMSO control)
Method: (§2)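 DSRT, CellTiter-Blue viability, 72 h incubation. Signal is normalised to DMSO and benzethonium chloride controls. Value is the normalised response at dose 7.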

[13] = system: CAL-148; assay: as above
Method: as §2

[14] = system: CAL-51; assay: as above
Method: as §2

[15] = system: CAL-85-1; assay: as above
Method: as §2

[16] = system: HDQ-P1; assay: as above
Method: as §2

[17] = system: MDA-MB-453; assay: as above
Method: as §2

[18] = system: MDA-MB-468; assay: normalised response (% of control), CellTox Green; higher = less cell death (100 = DMSO, 0 = benzethonium chloride kill control)
Procedure, shortened: as §1

[19] = system: MDA-MB-436; assay: as above
Procedure, shortened: as §1

CO[C@H](C(=O)[C@@H](O)[C@@H](C)O)[C@@H]1Cc2cc3cc(O[C@H]4C[C@@H](O[C@@H]5C[C@@H](O)[C@H](O)[C@@H](C)O5)[C@H](O)[C@@H](C)O4)c(C)c(O)c3c(O)c2C(=O)[C@H]1O[C@H]1C[C@@H](O[C@@H]2C[C@@H](O)[C@@H](O[C@@H]3C[C@](C)(O)[C@H](O)[C@@H](C)O3)[C@@H](C)O2)[C@H](O)[C@@H](C)O1 [Plicamycin] (1000 nM)
normalised response [1]: 104%
normalised response [2]: 104%
normalised response [3]: 81.3%
normalised response [4]: 109%
normalised response [5]: 106%
normalised response [6]: 94.9%
normalised response [7]: 99.3%
normalised response [8]: 97.8%
normalised response [9]: 81.6%
normalised response [10]: 103%
normalised response [11]: 104%
normalised viability [12]: 0.92% and -0.07%
normalised viability [13]: 2.42% and 2.71%
normalised viability [14]: 4.92% and 5.48%
normalised viability [15]: 6.52% and 5.6%
normalised viability [16]: 32.4% and 21.1%
normalised viability [17]: 8.78% and 7.08%

C[C@@H](C(=O)O)c1ccc(-c2ccccc2)c(F)c1 [Tarenflurbil] (1000 nM)
normalised response [1]: 96.6%
normalised response [2]: 115%
normalised response [18]: 112%
normalised response [19]: 60.6%
normalised response [3]: 87.5%
normalised response [6]: 114%
normalised response [7]: 87.9%
normalised response [8]: 65.7%
normalised response [9]: 105%
normalised response [10]: 100%
normalised response [11]: 102%
normalised viability [12]: 108%
normalised viability [13]: 92.5%
normalised viability [14]: 109%
normalised viability [15]: 90%
normalised viability [16]: 83.2%
normalised viability [17]: 87.7%

CCN(CC)CCOc1ccc(C(=C(Cl)c2ccccc2)c2ccccc2)cc1 [Clomifene] (1000 nM)
normalised response [1]: 99.3%
normalised response [2]: 82.8%
normalised response [18]: 68.9%
normalised response [19]: 83.7%
normalised response [4]: 104%
normalised response [5]: 102%
normalised response [6]: 110%
normalised response [7]: 99.8%
normalised response [8]: 90.2%
normalised response [9]: 82.3%
normalised response [10]: 99.7%
normalised response [11]: 104%
normalised viability [12]: 103%
normalised viability [13]: 110%
normalised viability [14]: 85.4%
normalised viability [15]: 97.6%
normalised viability [16]: 128%
normalised viability [17]: 108%

CC[C@@H]1C(=O)N(C)c2cnc(Nc3ccc(C(=O)N[C@H]4CC[C@H](N5CCN(CC6CC6)CC5)CC4)cc3OC)nc2N1C(C)C [Volasertib] (100 nM)
normalised response [1]: 93.2%
normalised response [18]: 85.1%
normalised response [19]: 64.2%
normalised response [3]: 53.5%
normalised response [4]: 31.8%
normalised response [5]: 61%
normalised response [6]: 46.4%
normalised response [7]: 57%
normalised response [8]: -27.2%
normalised response [9]: 81.8%
normalised response [10]: 89%
normalised response [11]: 98%
normalised viability [12]: 21%
normalised viability [13]: 23.4%
normalised viability [14]: 15.7%
normalised viability [15]: 42%
normalised viability [16]: 51.7%
normalised viability [17]: 24.5%

Cc1cc2c(F)c(Oc3ncnn4cc(OC[C@@H](C)O)c(C)c34)ccc2[nH]1 [Brivanib] (100 nM)
normalised response [1]: 104%
normalised response [2]: 101%
normalised response [18]: 100%
normalised response [19]: 81.2%
normalised response [3]: 102%
normalised response [4]: 104%
normalised response [6]: 99.4%
normalised response [7]: 103%
normalised response [8]: 106%
normalised response [9]: 79.8%
normalised response [10]: 104%
normalised response [11]: 103%
normalised viability [12]: 104%
normalised viability [13]: 111%
normalised viability [14]: 93.7%
normalised viability [15]: 87%
normalised viability [16]: 110%
normalised viability [17]: 90%

CC/C(=C(\c1ccccc1)c1ccc(OCCN(C)C)cc1)c1ccccc1 [Tamoxifen] (1000 nM)
normalised response [1]: 105%
normalised response [18]: 148%
normalised response [19]: 108%
normalised response [3]: 74.9%
normalised response [4]: 106%
normalised response [5]: 89.4%
normalised response [6]: 99.5%
normalised response [7]: 101%
normalised response [9]: 122%
normalised response [10]: 102%
normalised response [11]: 110%
normalised viability [12]: 112%
normalised viability [13]: 124%
normalised viability [14]: 78.4%
normalised viability [15]: 101%
normalised viability [16]: 98.7%
normalised viability [17]: 105%

Cc1c(N)nc([C@H](CC(N)=O)NC[C@H](N)C(N)=O)nc1C(=O)N[C@H](C(=O)N[C@H](C)[C@@H](O)[C@H](C)C(=O)N[C@H](C(=O)NCCc1nc(-c2nc(C(=O)NCCC[S+](C)C)cs2)cs1)[C@@H](C)O)[C@@H](OC1OC(CO)C(O)C(O)C1OC1OC(CO)C(O)C(OC(N)=O)C1O)c1cnc[nH]1 (some centres not stated) [Bleomycin] (1000 nM)
normalised response [1]: 97.5%
normalised response [18]: 138%
normalised response [19]: 84.5%
normalised response [3]: 88%
normalised response [4]: 58.4%
normalised response [5]: 67.4%
normalised response [6]: 44.5%
normalised response [7]: 92.7%
normalised response [8]: 54.8%
normalised response [9]: 99.9%
normalised response [10]: 92.9%
normalised response [11]: 99.1%
normalised viability [12]: 98.9%
normalised viability [13]: 105%
normalised viability [14]: 105%
normalised viability [15]: 94.5%
normalised viability [16]: 88%
normalised viability [17]: 94.3%

NC(=O)NO [Hydroxyurea] (10000 nM)
normalised response [1]: 103%
normalised response [18]: 81.7%
normalised response [19]: 84.6%
normalised response [3]: 79.9%
normalised response [4]: 98.2%
normalised response [6]: 69.1%
normalised response [7]: 116%
normalised response [9]: 98.7%
normalised response [10]: 95.1%
normalised response [11]: 106%
normalised viability [12]: 101%
normalised viability [13]: 112%
normalised viability [14]: 104%
normalised viability [15]: 102%
normalised viability [16]: 103%
normalised viability [17]: 108%

NC(=O)c1cccc2cn(-c3ccc([C@@H]4CCCNC4)cc3)nc12 [MK-4827] (1000 nM)
normalised response [1]: 97.8%
normalised response [2]: 104%
normalised response [18]: 110%
normalised response [19]: 86.7%
normalised response [3]: 101%
normalised response [4]: 80.5%
normalised response [5]: 113%
normalised response [6]: 82.8%
normalised response [7]: 95.6%
normalised response [9]: 81.1%
normalised response [10]: 98.5%
normalised response [11]: 106%
normalised viability [12]: 78.9%
normalised viability [13]: 87.4%
normalised viability [14]: 90.8%
normalised viability [15]: 93%
normalised viability [16]: 91.8%
normalised viability [17]: 93.3%
